Like-named read-outs stand apart in the source and are kept apart here.
Key:
[1] = tested on: Influenza A/California/04/2009 (pndH1N1) virus; format: in vivo, BALB/c mice
influenza A strains = test: microbe, parasite or virus in culture; format: cell-based
influenza B virus = test: Antiviral activity in MDCK cells measured by ATP levels (CellTiter-Glo), influenza B; format: cell-based; settings: read-out: Cell Protection Assay EC50 ± SD
influenza A virus = test: Mouse influenza A model: prophylactic dose response and delayed treatment, survival and body weight loss; format: in vivo, mice
Description: The prophylactic dose response of Compound (1) was investigated in the mouse influenza A model. […] All of the mice that received vehicle alone succumbed to the infection by study day 9 and had lost, on average, ˜32% of their body weight (BW).
All vehicle controls succumbed to disease by study days 8 or 9.

influenza virus = format: in vivo, mice
[2] = tested on: influenza A/Wisconsin/67/2005 (H3N2) challenge strain virus; test: Human live attenuated influenza challenge: nasal viral shedding by TCID50 cell culture assay; format: in vivo, healthy volunteers (humans); settings: 100 mg QD (N = 12)
Method: Subjects underwent thrice daily nasal swabs, and kept thrice daily score cards for clinical symptoms from Days 1-7, and were discharged from the facility on Day 8, with safety follow-up at approximately Day 28. Nasal swabs were assayed for influenza virus in cell culture (primary analysis) and by qRT-PCR (secondary analysis).
Additional FA group analyses were performed (data not shown).

[3] = 1 mg/kg p.o. twice a day for 10 days starting 2 hours prior to virus exposure
[4] = 3 mg/kg p.o. twice a day for 10 days starting 2 hours prior to virus exposure
[5] = 10 mg/kg p.o. twice a day for 10 days starting 2 hours prior to virus exposure
[6] = treatment start +24 h relative to infection, 1 mg/kg BID
[7] = treatment start +24 h relative to infection, 3 mg/kg BID
[8] = treatment start +24 h relative to infection, 10 mg/kg BID
[9] = treatment start +48 h relative to infection, 1 mg/kg BID
[10] = treatment start +48 h relative to infection, 3 mg/kg BID
[11] = treatment start +48 h relative to infection, 10 mg/kg BID
[12] = treatment start +72 h relative to infection, 1 mg/kg BID
[13] = treatment start +72 h relative to infection, 3 mg/kg BID
[14] = treatment start +72 h relative to infection, 10 mg/kg BID
[15] = treatment start +96 h relative to infection, 3 mg/kg BID
[16] = treatment start +96 h relative to infection, 10 mg/kg BID
[17] = treatment start +120 h relative to infection, 3 mg/kg BID
[18] = treatment start +120 h relative to infection, 10 mg/kg BID
[19] = treatment start −2 h relative to infection, 0.1 mg/kg BID
[20] = treatment start −2 h relative to infection, 0.3 mg/kg BID
[21] = treatment start −2 h relative to infection, 1 mg/kg BID
[22] = treatment start −2 h relative to infection, 3 mg/kg BID
[23] = treatment start −2 h relative to infection, 10 mg/kg BID

O=C(O)[C@H]1[C@H]2CC[C@H](CC2)[C@@H]1Nc1nc(-c2c[nH]c3ncc(F)cc23)ncc1F [Compound (1)]
Mean Lung Parameters (Day 6): Score (hemorrhage score 0-4) [1, 3]: 0.6
Mean Lung Parameters (Day 6): Virus Titer [1, 3]: 5.5 Log10 CCID50/g
Mean Lung Parameters (Day 6): Weight [1, 3]: 246 mg
Mean Lung Parameters (Day 6): Score (hemorrhage score 0-4) [1, 4]: 0.0
Mean Lung Parameters (Day 6): Virus Titer [1, 4]: 3.1 Log10 CCID50/g
Mean Lung Parameters (Day 6): Weight [1, 4]: 123 mg
Mean Lung Parameters (Day 6): Score (hemorrhage score 0-4) [1, 5]: 0.2
Mean Lung Parameters (Day 6): Virus Titer [1, 5]: <2.6^d*** Log10 CCID50/g
Mean Lung Parameters (Day 6): Weight [1, 5]: 132 mg
EC50 (influenza A strains; ATCC 2 / H1N1, MDCK, read-out: Cell Protection Assay EC50 ± SD): 1.9 ± 3 nM
EC50 (influenza A strains; ATCC 3 / H1N1, MDCK, read-out: Cell Protection Assay EC50 ± SD): 1.9 ± 3.2 nM
EC50 (influenza A strains; H1N1, MDCK, in Sus scrofa, read-out: Cell Protection Assay EC50 ± SD, A/Swine/1976/31, H1N1): 0.47 ± 0.11 nM
EC50 (influenza A strains; H1N1, MDCK, in Sus scrofa, read-out: Cell Protection Assay EC50 ± SD, A/Swine/Iowa/15/30, H1N1): 0.65 ± 0.082 nM
EC50 (influenza A strains; H1N1, MDCK, read-out: Cell Protection Assay EC50 ± SD, A/New Jersey/8/76, H1N1): 0.2 ± 0.096 nM
EC50 (influenza A strains; H3N8, MDCK, in Equus caballus, read-out: Cell Protection Assay EC50 ± SD, A/Equine/2/Miami/63, H3N8): 0.5 ± 0.065 nM
EC50 (influenza B virus; B/Russia/69): > 10 nM
EC50 (influenza B virus; Influenza B virus, MDCK, B/Lee/40): > 10 nM
survival (mice) (influenza A virus; 0.3 mg/kg BID for 10 days, initiated 2 h prior to infection): 2/8
Percent Body Weight Loss on Study Day 8 (influenza A virus; [6]): −23.4%
Percent Survival (influenza A virus; [6]): 100%
Percent Body Weight Loss on Study Day 8 (influenza A virus; [7]): −14.2%
Percent Survival (influenza A virus; [7]): 100%
Percent Body Weight Loss on Study Day 8 (influenza A virus; [8]): −6.2%
Percent Survival (influenza A virus; [8]): 100%
Percent Body Weight Loss on Study Day 8 (influenza A virus; [9]): −22.5%
Percent Survival (influenza A virus; [9]): 100%
Percent Body Weight Loss on Study Day 8 (influenza A virus; [10]): −10.9%
Percent Survival (influenza A virus; [10]): 100%
Percent Body Weight Loss on Study Day 8 (influenza A virus; [11]): −7.1%
Percent Survival (influenza A virus; [11]): 100%
Percent Body Weight Loss on Study Day 8 (influenza A virus; [12]): −29.4%
Percent Survival (influenza A virus; [12]): 100%
Percent Body Weight Loss on Study Day 8 (influenza A virus; [13]): −23.2%
Percent Survival (influenza A virus; [13]): 100%
Percent Body Weight Loss on Study Day 8 (influenza A virus; [14]): −17.4%
Percent Survival (influenza A virus; [14]): 100%
Percent Body Weight Loss on Study Day 8 (influenza A virus; [15]): −27.3%
Percent Survival (influenza A virus; [15]): 100%
Percent Body Weight Loss on Study Day 8 (influenza A virus; [16]): −25.5%
Percent Survival (influenza A virus; [16]): 100%
Percent Body Weight Loss on Study Day 8 (influenza A virus; [17]): −32.6%
Percent Survival (influenza A virus; [17]): 12.5%
Percent Body Weight Loss on Study Day 8 (influenza A virus; [18]): −34.4%
Percent Survival (influenza A virus; [18]): 37.5%
Percent Body Weight Loss on Study Day 8 (influenza A virus; [19]): −31.9%
Percent Survival (influenza A virus; [19]): 0%
Percent Body Weight Loss on Study Day 8 (influenza A virus; [20]): −30.4%
Percent Survival (influenza A virus; [20]): 25%
Percent Body Weight Loss on Study Day 8 (influenza A virus; [21]): −16.8%
Percent Survival (influenza A virus; [21]): 100%
Percent Body Weight Loss on Study Day 8 (influenza A virus; [22]): −8.7%
Percent Survival (influenza A virus; [22]): 100%
Percent Body Weight Loss on Study Day 8 (influenza A virus; [23]): −2.8%
Percent Survival (influenza A virus; [23]): 100%
half maximal reduction in lung titers (influenza virus; mice infected 24 h, then dosed for 24 h (q6 h, q12 h, q24 h)): 2-3 log
serum-shifted EC99 (influenza virus; plasma concentration near which half maximal reduction in lung titers occurs): 100 ng/mL
Viral Shedding by Tissue Culture AUC, median [2]: 1.25 log10 TCID50 mL*Day
Viral Shedding by Tissue Culture Duration, median [2]: 0.96 days

— patent publication US11345700B2, “Methods of preparing inhibitors of influenza viruses replication” (priority 2013, dated 2022)
